Laboratory results published in PMC10747202, “Computational and Experimental Drug Repurposing of FDA-Approved Compounds Targeting the Cannabinoid Receptor CB1” (Pharmaceuticals, 2023).

Tests used:
Details in all cases: read-out: % displacement at 10 μM
[1] = target: T1, cannabinoid receptor 1 (CB1R) (Mus musculus, UniProt P47746); assay: [3H]CP55, […] competition radioligand binding, mouse brain membranes, […] (weak)
T1 construct: gene Cnr1; native receptor in mouse brain membranes

[2] = target: T1, cannabinoid receptor 1 (CB1R); assay: [3H]CP55, […] competition radioligand binding, mouse brain membranes, […] (positive control)
[3] = target: T1, cannabinoid receptor 1 (CB1R); assay: [3H]CP55, […] competition radioligand binding, mouse brain membranes, […]

T1 sequence (P47746 whole entry): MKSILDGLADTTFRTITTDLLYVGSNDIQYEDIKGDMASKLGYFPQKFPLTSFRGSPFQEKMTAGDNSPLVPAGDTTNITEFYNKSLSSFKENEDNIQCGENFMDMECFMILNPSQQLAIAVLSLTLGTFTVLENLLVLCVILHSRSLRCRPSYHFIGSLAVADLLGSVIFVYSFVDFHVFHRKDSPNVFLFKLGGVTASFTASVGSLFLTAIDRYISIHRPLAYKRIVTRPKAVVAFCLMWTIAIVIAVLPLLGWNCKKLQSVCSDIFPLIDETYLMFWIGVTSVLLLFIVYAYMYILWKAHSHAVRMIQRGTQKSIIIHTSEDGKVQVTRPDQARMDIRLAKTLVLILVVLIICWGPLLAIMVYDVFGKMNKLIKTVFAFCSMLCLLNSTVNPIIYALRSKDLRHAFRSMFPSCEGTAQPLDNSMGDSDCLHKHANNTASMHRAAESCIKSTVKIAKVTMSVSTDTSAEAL

`Nc1nc(N)c2nc(CNc3ccc(C(=O)N[C@@H](CCC(=O)O)C(=O)O)cc3)cnc2n1` [APGA, Aminopterin] showed an inhibition at 10 µM [1] of roughly 30%.
`O=C(c1ccc(OCCN2CCCCC2)cc1)c1c(-c2ccc(O)cc2)sc2cc(O)ccc12` [Raloxifene] was tested, and the inhibition at 10 µM [2] was greater than 50%.
Compound `COc1ccc(CN=c2[nH]c(N3CCC[C@H]3CO)ncc2C(=O)NCc2ncccn2)cc1Cl` [Avanafil] has an inhibition at 10 µM [1] of roughly 30%.
Compound `CCCCC(=O)N(Cc1ccc(-c2ccccc2-c2nnn[nH]2)cc1)[C@H](C(=O)O)C(C)C` [Valsartan] has an inhibition at 10 µM [1] of roughly 30%.
`Cc1nnc(C(=O)NC(C)(C)c2nc(C(=O)NCc3ccc(F)cc3)c(O)c(=O)n2C)o1` [Raltegravir] was tested, and the inhibition at 10 µM [3] was roughly 80%.
In the case of `CN(Cc1cnc2nc(N)nc(N)c2n1)c1ccc(C(=O)N[C@@H](CCC(=O)O)C(=O)O)cc1` [Methotrexate], the inhibition at 10 µM [3] was roughly 50%.
In the case of `COC(=O)N(C)c1c(N)nc(-c2nn(Cc3ccccc3F)c3ncccc23)nc1N` [Riociguat], the inhibition at 10 µM [1] was roughly 20%.
For `CCCCCCCCCCCCCCCCOP(=O)([O-])OCC[N+](C)(C)C` [Miltefosine], the inhibition at 10 µM [3] was roughly 60%.
